Data: patent publication EP0880968A1, “Pharmaceutical compositions of peptides having low solubility in physiological medium” (Applied Research Systems ARS Holding N.V., priority 1997, dated 1998)
≈ marks a conversion by molar mass, not a printed value. Where “and” joins values, the source holds several entries; their conditions need not be identical. Equal entries are not always repeated. Where two headings read alike, the source gives them in different places. Square brackets hold non-standard residues; d marks the D form. Peptide text beside a SMILES is read from it. * marks the point of attachment. dPhe(4-Cl) = N[C@H](Cc1ccc(Cl)cc1)C(=O)O; d2Nal = N[C@H](Cc1ccc2ccccc2c1)C(=O)O; Lys(iPr) = CC(C)NCCCC[C@H](N)C(=O)O; d3Pal = N[C@H](Cc1cccnc1)C(=O)O; Nicotinoyl = O=C(c1cccnc1)*

Legend:
[1] = Solubilisation studies (visual appearance and RP-HPLC solubility after equilibration overnight at 25°C); format: physicochemical
Protocol: (§1) RP-HPLC gradient elution, C-18 (e.g. Vydac 218 TP54, 250 x 4.6 mm) column. UV detection at 215 nm, injection volume 15 µl mobile phase A: pH 4.5 phosphate buffer (0.1M), mobile phase B: acetonitrile, flow rate = 1.0 ml/min, runtime = 23 min. External standard solution concentrations of 100 µg/ml were injected during analysis. The gradient was: 77% A, 23% B to 52% A, 48% B […].
Solubilisation studies were carried out to study the effect of: • pH (solutions were acidified with either acetic acid or hydrochloric acid) • hydrotropic agents (nicotinamide, sodium saccharin, sodium salicylate, sodium benzoate, histidine hydrochloride, thiamine hydrochloride, phenylalanine).
Saline used in these studies corresponds to 0.9% sodium chloride solution.
Following the visual analysis, a number of solutions were selected for further quantitative determination of the solubility by filtration (0.45 µm filters) and appropriate dilution using the RP-HPLC method described above.

[2] = Stability of nicotinamide/antide formulations (chemical compatibility); format: physicochemical; details: pH 5
Protocol: as §1
Four formulations of antide and nicotinamide at different concentration ratios and adjusted to pH 5 were prepared and tested over 3 months at +40°C, +25°C and +4°C.
Chromatographic traces of antide were identical to those of the standard, with the addition of the early eluting nicotinamide peak which appeared at a retention tune of 3.2 minutes.

solubility thermodynamic ([1]; 0.9% NaCl solution (saline), saline or isotonic, 0.9% NaCl solution): 25 µg/mL (≈ 15.7 µM)
Solubility ([1]; 1% acetic acid in saline, 5 mg/ml antide added, pH 3.12, not quantified, read-out: drug solubility): < 5000 µg/mL
solubility thermodynamic ([1]; WFI (water for injection), pH 4.4, water, WFI, nominal amount added 10 mg/ml, pH 4.40): 8130 µg/mL (≈ 5110 µM)
Solubility ([1]; WFI (water for injection), water, WFI, nominal amount added 1 mg/ml, pH 5.00, read-out: Solubility): ≥ 1000 µg/mL
Solubility ([1]; WFI, nominal amount added 10 mg/ml, pH 4.40): 8100 µg/mL (≈ 5090 µM)
solubility thermodynamic ([1]; phosphate buffered saline, aqueous buffer): 16 µg/mL (≈ 10.1 µM)
Solubility ([1]; saline + 15% nicotinamide, nominal amount added 5 mg/ml, pH 5.79 (Table 9)): 3300 µg/mL and 3320 µg/mL
Solubility ([1]; saline + 15% sodium benzoate, nominal amount added 5 mg/ml, pH 6.69): 72 µg/mL
Solubility ([1]; saline + 15% sodium salicylate, nominal amount added 5 mg/ml, pH 5.81): 210 µg/mL
Solubility ([1]; saline + 15% thiamine hydrochloride, nominal amount added 5 mg/ml, pH 3.30): 3000 µg/mL and 3010 µg/mL
Solubility ([1]; saline + histidine hydrochloride (5%), nominal amount added 5 mg/ml, pH 4.17): 76 µg/mL
Solubility ([1]; saline + nicotinamide 10%, nominal amount added 5 mg/ml, pH 5.68): 1400 µg/mL
Solubility ([1]; saline + nicotinamide 15%, nominal amount added 5 mg/ml, pH 5.76 (Table 10)): 3230 µg/mL
Solubility ([1]; saline + nicotinamide 20%, nominal amount added 10 mg/ml, pH 5.64): 8500 µg/mL and 8490 µg/mL
Solubility ([1]; saline + phenylalanine (1.7%), nominal amount added 5 mg/ml, pH 4.59): 66 µg/mL
solubility thermodynamic ([1]; saline acidified with acetic acid, pH 3.01, saline or isotonic, nominal amount added 10 mg/ml, pH 3.01): 2200 µg/mL (≈ 1380 µM)
Solubility ([1]; saline acidified with acetic acid, nominal amount added 10 mg/ml, pH 3.01): 2230 µg/mL (≈ 1400 µM)
solubility thermodynamic ([1]; saline, pH 5.04, saline or isotonic, nominal amount added 1 mg/ml, natural pH 5.04): 25 µg/mL (≈ 15.7 µM)
Stability of nicotinamide/antide formulations ([2]; antide 1 mg/ml, nicotinamide 5%, +4°C, 4W): 0.9
Stability of nicotinamide/antide formulations ([2]; antide 1 mg/ml, nicotinamide 5%, +4°C, 12W): 1.0
Stability of nicotinamide/antide formulations ([2]; antide 1 mg/ml, nicotinamide 5%, +25°C, 1W): 0.9
Stability of nicotinamide/antide formulations ([2]; antide 1 mg/ml, nicotinamide 5%, +25°C, 4W): 0.9
Stability of nicotinamide/antide formulations ([2]; antide 1 mg/ml, nicotinamide 5%, +25°C, 12W): 1.0
Stability of nicotinamide/antide formulations ([2]; antide 1 mg/ml, nicotinamide 5%, +40°C, 1W): 1.0
Stability of nicotinamide/antide formulations ([2]; antide 1 mg/ml, nicotinamide 5%, +40°C, 4W): 0.9
Stability of nicotinamide/antide formulations ([2]; antide 1 mg/ml, nicotinamide 5%, +40°C, 12W): 1.0
Stability of nicotinamide/antide formulations ([2]; antide 1 mg/ml, nicotinamide 5%, T=0): 1.0
Stability of nicotinamide/antide formulations ([2]; antide 1 mg/ml, nicotinamide 25%, +4°C, 4W): 1.0
Stability of nicotinamide/antide formulations ([2]; antide 1 mg/ml, nicotinamide 25%, +4°C, 12W): 1.1
Stability of nicotinamide/antide formulations ([2]; antide 1 mg/ml, nicotinamide 25%, +25°C, 1W): 1.0
Stability of nicotinamide/antide formulations ([2]; antide 1 mg/ml, nicotinamide 25%, +25°C, 4W): 1.0
Stability of nicotinamide/antide formulations ([2]; antide 1 mg/ml, nicotinamide 25%, +25°C, 12W): 1.1
Stability of nicotinamide/antide formulations ([2]; antide 1 mg/ml, nicotinamide 25%, +40°C, 1W): 1.0
Stability of nicotinamide/antide formulations ([2]; antide 1 mg/ml, nicotinamide 25%, +40°C, 4W): 1.0
Stability of nicotinamide/antide formulations ([2]; antide 1 mg/ml, nicotinamide 25%, +40°C, 12W): 1.1
Stability of nicotinamide/antide formulations ([2]; antide 1 mg/ml, nicotinamide 25%, T=0): 1.0
Stability of nicotinamide/antide formulations ([2]; antide 10 mg/ml, nicotinamide 5%, +4°C, 1W): 10.3
Stability of nicotinamide/antide formulations ([2]; antide 10 mg/ml, nicotinamide 5%, +4°C, 4W): 10.0
Stability of nicotinamide/antide formulations ([2]; antide 10 mg/ml, nicotinamide 5%, +4°C, 12W): 10.5
Stability of nicotinamide/antide formulations ([2]; antide 10 mg/ml, nicotinamide 5%, +25°C, 4W): gel
Stability of nicotinamide/antide formulations ([2]; antide 10 mg/ml, nicotinamide 5%, +25°C, 12W): gel
Stability of nicotinamide/antide formulations ([2]; antide 10 mg/ml, nicotinamide 5%, +40°C, 4W): gel
Stability of nicotinamide/antide formulations ([2]; antide 10 mg/ml, nicotinamide 5%, +40°C, 12W): gel
Stability of nicotinamide/antide formulations ([2]; antide 10 mg/ml, nicotinamide 5%, T=0): 9.7
Stability of nicotinamide/antide formulations ([2]; antide 10 mg/ml, nicotinamide 25%, +4°C, 4W): 10.1
Stability of nicotinamide/antide formulations ([2]; antide 10 mg/ml, nicotinamide 25%, +25°C, 1W): 9.8
Stability of nicotinamide/antide formulations ([2]; antide 10 mg/ml, nicotinamide 25%, +25°C, 4W): 9.5
Stability of nicotinamide/antide formulations ([2]; antide 10 mg/ml, nicotinamide 25%, +25°C, 12W): 11.1
Stability of nicotinamide/antide formulations ([2]; antide 10 mg/ml, nicotinamide 25%, +40°C, 1W): 10.7
Stability of nicotinamide/antide formulations ([2]; antide 10 mg/ml, nicotinamide 25%, +40°C, 4W): 9.4
Stability of nicotinamide/antide formulations ([2]; antide 10 mg/ml, nicotinamide 25%, +40°C, 12W): 10.2
Stability of nicotinamide/antide formulations ([2]; antide 10 mg/ml, nicotinamide 25%, T=0): 9.8
SMILES: CC(=O)N[C@H](Cc1ccc2ccccc2c1)C(=O)N[C@H](Cc1ccc(Cl)cc1)C(=O)N[C@H](Cc1cccnc1)C(=O)N[C@@H](CO)C(=O)N[C@@H](CCCCNC(=O)c1cccnc1)C(=O)N[C@H](CCCCNC(=O)c1cccnc1)C(=O)N[C@@H](CC(C)C)C(=O)N[C@@H](CCCCNC(C)C)C(=O)N1CCC[C@H]1C(=O)N[C@H](C)C(N)=O [antide] (Ac-[d2Nal][dPhe(4-Cl)][d3Pal]SK(Nicotinoyl)[dK](Nicotinoyl)L[Lys(iPr)]P[dA]-NH2)
Stability of nicotinamide/antide formulations ([2]; antide 10 mg/ml, nicotinamide 5%, +25°C, 1W): increased viscosity with precipitate formation and gel
Stability of nicotinamide/antide formulations ([2]; antide 10 mg/ml, nicotinamide 5%, +40°C, 1W): increased viscosity with precipitate formation and gel
